# Measured values published in patent US9040516B2, “Uracil derivative and use thereof for medical purposes” (SUMITOMO DAINIPPON PHARMA CO., LTD., priority 2011, dated 2015).
# pIC50: −log10 of the molar value.
# Key:
# [1] = target: T1, human neutrophil elastase (Homo sapiens, UniProt P08246); assay: Inhibitory action against human neutrophil elastase (Test Example 1; fluorogenic substrate MeOSuc-AAPV-AMC, buffer with 2M NaCl, 0.002% Brij-35); assay type: biochemical; conditions: for pIC50: 37° C., read-out: IC50 value (compound concentration required for 50% inhibition of human neutrophil elastase)
# T1 construct: purchased Elastin Products Company
# T1 sequence (P08246 30-267): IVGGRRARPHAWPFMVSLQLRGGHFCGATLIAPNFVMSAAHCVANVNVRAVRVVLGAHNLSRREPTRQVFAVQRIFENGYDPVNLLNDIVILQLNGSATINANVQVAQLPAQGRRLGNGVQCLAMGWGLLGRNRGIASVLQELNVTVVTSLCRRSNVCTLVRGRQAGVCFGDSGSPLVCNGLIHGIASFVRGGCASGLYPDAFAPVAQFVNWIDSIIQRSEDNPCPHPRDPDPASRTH
# Procedure: Assay buffer (0.4 unit/ml HNE (human neutrophil elastase, available from Elastin Products Company), 200 mM HEPES [N-(2-hydroxyethyl)piperazine-N′-(2-ethanesulfonic acid)], pH 7.5, 2M NaCl, 0.002% Brij-35) 100 μl, water for injection 40 μl and DMSO (dimethyl sulfoxide) solution of the present compound 20 μl were mixed in a 96 well plate and the mixed solutions were pre-incubated at 37° C. for five minutes. After pre-incubation, MeOSuc-AAPV-AMC (methoxysuccinyl-alanyl-alanyl-prolyl-valyl-aminomethyl cumaride (available from Sigma Aldrich Co.) solution as fluorogenic substrate (which was dissolved in 10% DMSO solution so as to adjust to 0.5 mM) 40 μl was added to the above-prepared mixed solution so as to initiate the reaction, and the mixture was incubated at 37° C. for five minutes. The fluorescence intensity of AMC was measured at an excitation wavelength of 380 nm and a fluorescence wavelength of 460 nm and the inhibition ratio was determined.
# [2] = target: T1, human neutrophil elastase; assay: Inhibitory action 2 against human neutrophil elastase (Test Example 2; fluorogenic substrate MeOSuc-AAPV-AMC, buffer with 400 mM NaCl, 0.2 mg/ml BSA); assay type: biochemical; conditions: 37° C., read-out: IC50 value (compound concentration required for 50% inhibition of human neutrophil elastase)
# Procedure: Assay buffer (0.4 unit/ml HNE (human neutrophil elastase, available from Elastin Products Company), 200 mM HEPES [N-(2-hydroxyethyl)piperazine-N′-(2-ethanesulfonic acid)], pH 7.5, 400 mM NaCl, 0.2 mg/ml BSA (bovine serum albumin)) 100 μl, water for injection 20 μl and 1% DMSO (dimethyl sulfoxide) solution of the present compound 20 μl were mixed in a 96 well plate and the mixed solutions were pre-incubated at 37° C. for five minutes. After pre-incubation, MeOSuc-AAPV-AMC (methoxysuccinyl-alanyl-alanyl-prolyl-valyl-aminomethyl cumaride (available from Sigma Aldrich Corp.) solution as fluorogenic substrate (which was dissolved in 10% DMSO solution so as to adjust to 0.5 mM) 40 μl was added to the above-prepared mixed solution so as to initiate the reaction, and the mixture was incubated at 37° C. for five minutes. The fluorescence intensity of AMC was measured at an excitation wavelength of 380 nm and a fluorescence wavelength of 460 nm and the inhibition ratio was determined.
SMILES,pIC50 [1],pIC50 [2],other results
"Cc1c(-c2ccnn2-c2cccc(C#N)c2)c(=O)n(C)c(=O)n1-c1cccc(C(F)(F)F)c1 [Example 35, 3-[5-[3,6-dimethyl-2,4-dioxo-1-(3-trifluoromethylphenyl)-1,2,3,4-tetrahydropyrimidin-5-yl]-1H-pyrazol-1-yl]benzonitrile]",–,–,Inhibition ratio (%) ([1]; at 100 μM): 49%
"Cc1c(-c2ccnn2-c2ccc(C#N)cc2S(C)(=O)=O)c(=O)n(C)c(=O)n1-c1cccc(C(F)(F)F)c1 [Example 102, 4-[5-[3,6-Dimethyl-2,4-dioxo-1-(3-trifluoromethylphenyl)-1,2,3,4-tetrahydropyrimidin-5-yl]-1H-pyrazol-1-yl]-3-(methylsulfonyl)benzonitrile]",6.82,–,–
"Cc1c(-c2cccnc2-c2ccc(C#N)cc2)c(=O)n(C)c(=O)n1-c1cccc(C(F)(F)F)c1 [Example 61, 4-[3-[3,6-dimethyl-2,4-dioxo-1-(3-trifluoromethylphenyl)-1,2,3,4-tetrahydropyrimidin-5-yl]-pyridin-2-yl]benzonitrile]",7.13,–,–
"CCCn1c(=O)c(-c2ccnn2-c2ccc(C#N)cc2)c(N)n(-c2cccc([N+](=O)[O-])c2)c1=O [Example 57, 4-[5-[6-Amino-1-(3-nitrophenyl)-2,4-dioxo-3-propyl-1,2,3,4-tetrahydropyrimidin-5-yl]-1H-pyrazol-1-yl]benzonitrile]",6.80,–,–
"CCCn1c(=O)c(-c2ccnn2-c2ccc(C#N)cc2)c(N=CN(C)C)n(-c2cccc([N+](=O)[O-])c2)c1=O [Example 29, N′-[5-[1-(4-cyanophenyl)-1H-pyrazol-5-yl]-3-(3-nitrophenyl)-2,6-dioxo-1-propyl-1,2,3,6-tetrahydropyrimidin-4-yl]-N,N-dimethylformimidamide]",5.67,–,–
"Cc1c(-c2ccnn2-c2ccc(C#N)nc2)c(=O)n(C)c(=O)n1-c1cccc(C(F)(F)F)c1 [Example 23, 5-[5-[3,6-dimethyl-2,4-dioxo-1-(3-trifluoromethylphenyl)-1,2,3,4-tetrahydropyrimidin-5-yl]-1H-pyrazol-1-yl]picolinonitrile]",6.19,–,–
Cc1c(-c2c(S(=O)(=O)N3CCOC3=O)cnn2-c2ccc(C#N)cc2)c(=O)n(C)c(=O)n1-c1cccc(C(F)(F)F)c1 [Example 239],–,8.11,–
N#Cc1ccc(-n2nccc2-c2cn(-c3cccc(C(F)(F)F)c3)c(=O)n([C@@H]3CNC(=O)C3)c2=O)cc1 [Example 90],–,6.45,–
CCn1c(=O)c(-c2c(C(=O)N3CC(O)C3)cnn2-c2ccc(C#N)cc2)c(C)n(-c2cccc(C(F)(F)F)c2)c1=O [Example 156],–,8.00,–
Cc1c(-c2ccnn2-c2ccc(C#N)cc2)c(=O)n(C(C)CN2CCC(S(C)(=O)=O)CC2)c(=O)n1-c1cccc(C(F)(F)F)c1 (centres unmarked) [Example 387],–,8.05,–
"Cc1c(-c2c(S(N)(=O)=O)cnn2-c2ccc(C#N)cc2)c(=O)n(C)c(=O)n1-c1cccc(C(F)(F)F)c1 [Example 205, 1-(4-cyanophenyl)-5-(3,6-dimethyl-2,4-dioxo-1-(3-trifluoromethylphenyl)-1,2,3,4-tetrahydropyrimidin-5-yl)-1H-pyrazole-4-sulfonamide]",–,7.82,–
Cc1c(-c2c(C(=O)NC3CC3)cnn2-c2ccc(C#N)cc2)c(=O)n(C)c(=O)n1-c1cccc(C(F)(F)F)c1 [Example 179],–,8.06,–
Cc1c(-c2c(CN3CC(F)(F)C3)cnn2-c2ccc(C#N)cc2)c(=O)n(C)c(=O)n1-c1cccc(C(F)(F)F)c1 [Example 305],–,7.66,–
Cc1cc(C#N)ccc1-n1nccc1-c1c(C)n(-c2cccc(C(F)(F)F)c2)c(=O)n(C)c1=O [Example 328],–,7.61,–
CCNC(=O)NS(=O)(=O)c1cnn(-c2ccc(C#N)cc2)c1-c1c(C)n(-c2cccc(C(F)(F)F)c2)c(=O)n(C)c1=O [Example 257],–,8.11,–

# More lines, main results first:
pIC50 [1],pIC50 [2],SMILES,other results
6.18,–,"Cc1c(-c2ccnn2-c2ccc(C#N)cc2)c(=O)n(CCC(=O)N(C)C)c(=O)n1-c1cccc(C(F)(F)F)c1 [Example 75, 3-[5-[1-(4-Cyanophenyl)-1H-pyrazol-5-yl]-4-methyl-2,6-dioxo-3-(3-trifluoromethylphenyl)-2,3-dihydropyrimidin-1(6H)-yl]-N,N-dimethylpropaneamide]",–
6.83,–,"Cc1c(-c2ccnn2-c2ccc(C#N)cc2)c(=O)n(CCCCO)c(=O)n1-c1cccc(C(F)(F)F)c1 [Example 84, 4-[5-[3-(4-hydroxybutyl)-6-methyl-2,4-dioxo-1-(3-trifluoromethylphenyl)-1,2,3,4-tetrahydropyrimidin-5-yl]-1H-pyrazol-1-yl]benzonitrile]",–
4.65,–,"CNC(=O)c1cccc(-n2c(C)c(-c3ccnn3-c3ccc(C#N)cc3)c(=O)n(C)c2=O)c1 [Example 105, 3-[5-[1-(4-cyanophenyl)1H-pyrazol-5-yl]-3,6-dimethyl-2,4-dioxo-3,4-dihydropyrimidin-1(2H)yl]-N-methylbenzamide]",–
6.48,–,"CCc1cccc(-n2c(C)c(-c3ccnn3-c3ccc(C#N)cc3)c(=O)n(C)c2=O)c1 [Example 108, 4-[5-[3,6-Dimethyl-2,4-dioxo-1-(3-ethylphenyl)-1,2,3,4-tetrahydropyrimidin-5-yl]-1H-pyrazol-1-yl]benzonitrile]",–
5.89,–,"CNC(=O)CCCn1c(=O)c(-c2ccnn2-c2ccc(C#N)cc2)c(C)n(-c2cccc(C(F)(F)F)c2)c1=O [Example 80, 4-[5-[1-(4-cyanophenyl)-1H-pyrazol-5-yl]-4-methyl-2,6-dioxo-3-(3-trifluoromethylphenyl)-2,3-dihydropyrimidin-1(6H)-yl]-N-methylbutaneamide]",–
7.19,–,"Cc1c(-c2ccnn2-c2ccc(C#N)cc2)c(=O)n(CCCCCNC(=O)OC(C)(C)C)c(=O)n1-c1cccc(C(F)(F)F)c1 [Example 8, tert-butyl 5-[5-[1-(4-cyanophenyl)-1H-pyrazol-5-yl]-4-methyl-2,6-dioxo-3-(3-trifluoromethyl)-2,3-dihydropyrimidine-1(6H)-yl]pentylcarbamate]",–
7.72,–,"Cc1c(-c2ccnn2-c2ccc(C#N)cc2)c(=O)n(C)c(=O)n1-c1cccc(C(F)(F)F)c1 [Example 31, 4-[5-[3,6-dimethyl-2,4-dioxo-1-(3-trifluoromethylphenyl)-1,2,3,4-tetrahydropyrimidin-5-yl]-1H-pyrazol-1-yl]benzonitrile]",–
5.10,–,"Cc1c(-c2ccnn2-c2ccc(C#N)cc2)c(=O)n(C)c(=O)n1-c1cccc(C(C)(C)C)c1 [Example 38, 4-(5-(1-(3-tert-butylphenyl)-3,6-dimethyl-2,4-dioxo-1,2,3,4-tetrahydropyrimidin-5-yl)-1H-pyrazol-1-yl)benzonitrile]",–
6.94,–,"Cc1c(-c2ccnn2-c2ccc(C#N)cc2)c(=O)n(CCN(C)C)c(=O)n1-c1cccc(C(F)(F)F)c1 [Example 69, 4-[5-[3-(2-Dimethylaminoethyl)-6-methyl-2,4-dioxo-1-(3-trifluoromethylphenyl)-1,2,3,4-tetrahydropyrimidin-5-yl]-1H-pyrazol-1-yl]benzonitrile]",–
–,8.09,Cc1c(-c2ccnn2-c2ccc(C#N)cc2)c(=O)n(C2CCN(C(=O)C(C)(C)O)CC2)c(=O)n1-c1cccc(C(F)(F)F)c1 [Example 355],–
–,8.02,"Cc1c(-c2ccnn2-c2ccc(C#N)cc2)c(=O)n([C@H](C)CS(N)(=O)=O)c(=O)n1-c1cccc(C(F)(F)F)c1 [Example 324, (R)-2-(5-(1-(4-Cyanophenyl)-1H-pyrazol-5-yl)-4-methyl-2,6-dioxo-3-(3-trifluoromethylphenyl)-2,3-dihydropyrimidin-1(6H)-yl)propane-1-sulfonamide]",–
